The text below walks through data of patent US8987200B2, “Polycationic calcium modulator peptides for the treatment of hyperparathyroidism and hypercalcemic disorders” (KAI Pharmaceuticals, Inc., priority 2006, dated 2015).

No end group written: not given here.

The conditions of data set [1]: rat, plasma.
Data set [2] in a line: In vitro activity of free-thiol calcium modulating peptide compared with KAI-1455. The note with it: tested in vitro, relative to KAI-1455.
The next data set concerns anesthetized rats. As to the kind of experiment: 3 hour infusion study of KAI-1633 in anesthetized rats, with steady state plasma concentration by ELISA (Example 14). In kind it is in vivo, rat. The note with it: 9 mg/kg iv infusion for 3 hours. From the text:
The study was designed to determine the contribution of the disulfide bond and/or cysteine residue on the calcium modulator peptide to the reductions in total calcium and plasma PTH.
Control animals (n=4) were infused with saline.

Consider `CC[C@H](C)[C@H](NC(=O)[C@@H]1CCCN1C(=O)[C@H](C)NC(=O)[C@H](CC(=O)O)NC(=O)[C@H](Cc1c[nH]cn1)NC(=O)[C@@H](N)CSSC[C@H](N)C(=O)N[C@@H](Cc1ccc(O)cc1)C(=O)NCC(=O)N[C@@H](CCCNC(=N)N)C(=O)N[C@@H](CCCCN)C(=O)N[C@@H](CCCCN)C(=O)N[C@@H](CCCNC(=N)N)C(=O)N[C@@H](CCCNC(=N)N)C(=O)N[C@@H](CCC(N)=O)C(=O)N[C@@H](CCCNC(=N)N)C(=O)N[C@@H](CCCNC(=N)N)C(=O)N[C@@H](CCCNC(=N)N)C(=O)O)C(=O)NCC(=O)N[C@@H](Cc1ccc(O)cc1)C(=O)N[C@@H](CC(=O)O)C(=O)O` [KP-9706], for which the half-life in data set [1] was about 5 min. On to `CC(C)C[C@H](NC(=O)[C@H](CO)NC(=O)CNC(=O)[C@H](CC(C)C)NC(=O)[C@H](CCC(=O)O)NC(=O)[C@H](Cc1ccc(O)cc1)NC(=O)[C@H](CO)NC(=O)[C@H](CC(N)=O)NC(=O)[C@H](Cc1ccccc1)NC(=O)[C@H](CO)NC(=O)[C@@H](N)CSSC[C@H](N)C(=O)N[C@@H](Cc1ccc(O)cc1)C(=O)NCC(=O)N[C@@H](CCCNC(=N)N)C(=O)N[C@@H](CCCCN)C(=O)N[C@@H](CCCCN)C(=O)N[C@@H](CCCNC(=N)N)C(=O)N[C@@H](CCCNC(=N)N)C(=O)N[C@@H](CCC(N)=O)C(=O)N[C@@H](CCCNC(=N)N)C(=O)N[C@@H](CCCNC(=N)N)C(=O)N[C@@H](CCCNC(=N)N)C(=O)O)C(=O)O` [KP-9803], for which the half-life in data set [1] is about 10 min.

Regarding “Ac-CYGRKKRRQRRR-NH2 [SEQ ID NO:5, capped TAT-derived peptide having an N-terminal cysteine residue containing a free thiol]”, the Activity in vitro result in data set [2] is reported as “comparable to KAI-1455”. As for EAVSLKPTGGYGRKKRRQRRR-NH2 [KAI-1633], in the data set on anesthetized rats, the “Plasma PTH levels” value is “did not show a reduction” and the Total calcium result is “did not show a reduction”.
